The record followed here is ChEMBL document CHEMBL1149582, “Synthesis of penaresidin derivatives and its biological activity” (Bioorg Med Chem, 2007).

In experiment [1] the test system is KB. The experiment in a line: Cytotoxicity against human KB cells. The class given is functional, cell-based.
The subject of experiment [2] is L1210. The experiment in a line: Cytotoxicity against mouse L1210 cells. The class given is functional, cell-based.
Experiment [3] in a line: Cytotoxicity against human […] cells. The class given is functional, cell-based.
Experiment [4] relates to A549. The experiment in a line: Cytotoxicity against human A549 cells. In kind it is functional, cell-based.
For experiment [5], the system named is Micrococcus luteus. Put plainly: Antibacterial activity against Micrococcus luteus IFM 2066. The class given is functional.
Experiment [6] deals with Aspergillus niger. Put plainly: Antibacterial activity against Aspergillus niger IFM 5368. The class given is functional.
Experiment [7] has as its system Cryptococcus neoformans. The experiment in a line: Antibacterial activity against Cryptococcus neoformans IFM 46914. In kind it is functional.
Experiment [8] concerns Escherichia coli. The experiment in a line: Antibacterial activity against Escherichia coli ATCC 25922. In kind it is functional.
In experiment [9] the test system is Staphylococcus aureus. The experiment in a line: Antibacterial activity against Staphylococcus aureus 209P. The class given is functional.
Experiment [10] has as its system Candida albicans. The experiment in a line: Antibacterial activity against Candida albicans ATCC 90028. The class given is functional.
Experiment [11] deals with Bacillus subtilis. Put plainly: Antibacterial activity against Bacillus subtilis […]. The class given is functional.

In brackets after ≈: the same amount, converted by molar mass.

What is called IC50 is the concentration at which inhibition is half-maximal. High values mean weaker potency, low ones greater potency. Regarding `CCCCCCCCCCCCCC[C@H]1N[C@@H](CO)[C@H]1O`, the IC50 in experiment [1] was above 10 µg/mL; in experiment [2] it was above 10 µg/mL; in [3], 1.65 µg/mL (≈ 5.51 µM); in experiment [4], 1.38 µg/mL (≈ 4.61 µM).
A word on the MIC: it is the least concentration at which growth counts as inhibited. Consider `CCCCCCCCCCCCCC[C@H]1N[C@H](CO)[C@H]1O`, for which the MIC in experiment [5] was 4.18 µg/mL (≈ 14 µM); in [6] it was above 16.7 µg/mL; in experiment [7], above 16.7 µg/mL; in experiment [8] it was above 16.7 µg/mL; in [9], 16.7 µg/mL (≈ 55.8 µM); in [10], above 16.7 µg/mL. This compound returned an MIC in [11] of 8.35 µg/mL (≈ 27.9 µM). Further, the IC50 in [1] is 6 µg/mL (≈ 20 µM); in experiment [2], 4.5 µg/mL (≈ 15 µM); in experiment [3], 1.23 µg/mL (≈ 4.11 µM); in experiment [4], above 2 µg/mL.
`CC(C)CC[C@H](O)CCCCCCCCC[C@@H]1N[C@@H](CO)[C@@H]1O`: the MIC in [5], in experiment [6], in experiment [7], in experiment [8], in experiment [9] and in experiment [10] was above 16.7 µg/mL in each case. In experiment [11], this compound came in with an MIC above 16.7 µg/mL. Besides, the IC50 is above 10 µg/mL in [1], 2.9 µg/mL (≈ 8.8 µM) in experiment [2], above 2 µg/mL in [3] and above 2 µg/mL in experiment [4].
For `CCCCCCCCCCCCCC[C@@H]1N[C@H](CO)[C@H]1O`, the MIC was 8.35 µg/mL (≈ 27.9 µM) in [5]; above 16.7 µg/mL in experiment [6]; above 16.7 µg/mL in [7]; above 16.7 µg/mL in [8]; above 16.7 µg/mL in [9]; above 16.7 µg/mL in experiment [10]. The MIC in experiment [11] turned out to be 16.7 µg/mL (≈ 55.8 µM). Moreover, the IC50 in [1] was above 10 µg/mL; in experiment [2], 4.5 µg/mL (≈ 15 µM); in [3], 0.79 µg/mL (≈ 2.64 µM); in [4], 1.97 µg/mL (≈ 6.58 µM).
In the case of `CCCCCCCCCCCCCC[C@@H]1N[C@H](CO)[C@@H]1O`, the MIC in [5], in experiment [6], in experiment [7], in [8], in experiment [9] and in experiment [10] was above 16.7 µg/mL in each case. The compound further yielded an MIC in [11] above 16.7 µg/mL. For the same compound, the IC50 in [1] was above 10 µg/mL; in experiment [2], 7.5 µg/mL (≈ 25 µM); in experiment [3], above 2 µg/mL; in experiment [4] it was above 2 µg/mL.
As for `CCCCCCCCCCCCCC[C@@H]1N[C@@H](CO)[C@@H]1O`, the minimal inhibitory concentration (MIC) in experiment [5] is 1.84 µg/mL (≈ 6.14 µM); in [6], above 16.7 µg/mL; in experiment [7] it was above 16.7 µg/mL; in experiment [8] it was above 16.7 µg/mL; in experiment [9] it was 8.35 µg/mL (≈ 27.9 µM); in experiment [10], above 16.7 µg/mL. Besides, the MIC in experiment [11] worked out at 4.18 µg/mL (≈ 14 µM). In addition, the 50% inhibitory concentration (IC50) was determined as 3.4 µg/mL (≈ 11.4 µM) in experiment [1], 4.5 µg/mL (≈ 15 µM) in [2], 0.56 µg/mL (≈ 1.87 µM) in experiment [3] and 0.34 µg/mL (≈ 1.14 µM) in experiment [4].
`CCCCCCCCCCCCCC[C@H]1N[C@@H](CO)[C@@H]1O`: the MIC in [5] was 4.18 µg/mL (≈ 14 µM); in [6] it was above 16.7 µg/mL; in [7], above 16.7 µg/mL; in [8], 8.35 µg/mL (≈ 27.9 µM); in experiment [9], 8.35 µg/mL (≈ 27.9 µM); in experiment [10], above 16.7 µg/mL. This compound also showed a minimum inhibitory concentration (MIC) in experiment [11] of 4.18 µg/mL (≈ 14 µM). In addition, the IC50 in experiment [1] came out at 3.2 µg/mL (≈ 10.7 µM); in experiment [2], 1.6 µg/mL (≈ 5.34 µM); in experiment [3], 0.17 µg/mL (≈ 0.568 µM); in experiment [4] it was 0.22 µg/mL (≈ 0.735 µM).
